Experimental data published in PMC4897628, “CRF receptor 1 antagonism and brain distribution of active components contribute to the ameliorative effect of rikkunshito on stress-induced anorexia” (Scientific Reports, 2016).

Legend:
[1] = target: T1, CRFR1 (human CRF receptor 1, corticotropin-releasing factor receptor 1) (Homo sapiens, UniProt P34998); experiment: HTRF cAMP assay, antagonist mode, transfected CHO cells; assay type: cell-based
T1 construct: gene CRHR1; receptor expressed in transfected CHO cells (Cerep)
T1 sequence (P34998 24-415): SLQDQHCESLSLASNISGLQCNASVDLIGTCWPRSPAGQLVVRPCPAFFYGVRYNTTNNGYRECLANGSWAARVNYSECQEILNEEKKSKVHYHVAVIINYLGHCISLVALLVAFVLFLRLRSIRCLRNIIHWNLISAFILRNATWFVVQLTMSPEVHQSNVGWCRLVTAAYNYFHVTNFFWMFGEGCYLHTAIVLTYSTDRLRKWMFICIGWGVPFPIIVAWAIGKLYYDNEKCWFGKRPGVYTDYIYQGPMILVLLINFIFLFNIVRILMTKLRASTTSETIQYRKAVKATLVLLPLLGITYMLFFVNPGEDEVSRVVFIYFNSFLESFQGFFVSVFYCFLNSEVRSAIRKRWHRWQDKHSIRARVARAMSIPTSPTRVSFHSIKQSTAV
From the text: HTRF cAMP assay, antagonist mode, transfected CHO cells on CRFR1 (human CRF receptor 1, corticotropin-releasing factor receptor 1)

[2] = target: T1, CRFR1 (human CRF receptor 1, corticotropin-releasing factor receptor 1); experiment: HTRF cAMP assay, antagonist mode, transfected CHO cells; KB from IC50 by modified Cheng-Prusoff equation; assay type: cell-based
From the text: HTRF cAMP assay, antagonist mode, transfected CHO cells; KB from IC50 by modified Cheng-Prusoff equation on CRFR1 (human CRF receptor 1, corticotropin-releasing factor receptor 1)

Row | IC50 [1] [µM] | Kb [2] [µM] | Structure (SMILES)
1 | 130 | 45 | COc1ccc([C@@H]2CC(=O)c3c(O)cc(O)cc3O2)cc1O [Hesperetin]
2 | 52 | 1.3 | COc1c(CC=C(C)C)c(O)cc2oc(=O)c(-c3ccc(O)cc3O)cc12 [Glycycoumarin]
3 | 74 | 1.8 | CCCCCCC/C=C/C(=O)CCc1ccc(O)c(OC)c1 [[8]-Shogaol]
4 | 15 | 0.36 | COc1ccc(-c2cc(=O)c3c(OC)c(OC)c(OC)c(OC)c3o2)cc1OC [Nobiletin]
5 | 60 | 1.5 | COc1ccc(-c2cc(=O)c3c(OC)c(OC)c(OC)c(OC)c3o2)cc1 [Tangeretin]
6 | 14 | 0.35 | CC1(C)[C@@H](O)CC[C@]2(C)[C@H]3C(=O)C=C4[C@@H]5C[C@@](C)(C(=O)O)CC[C@]5(C)CC[C@@]4(C)[C@]3(C)CC[C@@H]12 [Glycyrrhetic acid]
7 | 28 | 0.67 | O=C(/C=C/c1ccc(O)cc1)c1ccc(O)cc1O [Isoliquiritigenin]
